From PMC6858373 (Scientific Reports, 2019)
Like-named read-outs stand apart in the source and are kept apart here.

Assays:
[1] = target: T1, FGF14:Nav1.6 C-tail complex (Homo sapiens, UniProt Q92915+Q9UQD0); experiment: Split-luciferase complementation assay (LCA) in Clone V double stable HEK293 cells; assay type: cell-based
T1 construct: polymerase chain reaction (PCR) amplification of the FGF14 open reading frame (nt 1–855); C-terminal fragment of Nav1.6 (amino acids 1763–1976) fused with CD4ΔC-tail (amino acids 1–395); expressed in transfected cells
T1 sequence (Q92915 1-252 isoform Q92915-2): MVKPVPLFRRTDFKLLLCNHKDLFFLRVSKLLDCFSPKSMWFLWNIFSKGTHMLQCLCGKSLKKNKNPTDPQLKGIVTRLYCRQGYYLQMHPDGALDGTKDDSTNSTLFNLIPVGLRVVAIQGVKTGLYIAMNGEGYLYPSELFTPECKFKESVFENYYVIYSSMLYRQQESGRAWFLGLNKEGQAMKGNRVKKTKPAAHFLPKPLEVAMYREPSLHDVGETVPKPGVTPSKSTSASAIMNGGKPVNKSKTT
T1 sequence (Q9UQD0 1763-1976 limits assumed): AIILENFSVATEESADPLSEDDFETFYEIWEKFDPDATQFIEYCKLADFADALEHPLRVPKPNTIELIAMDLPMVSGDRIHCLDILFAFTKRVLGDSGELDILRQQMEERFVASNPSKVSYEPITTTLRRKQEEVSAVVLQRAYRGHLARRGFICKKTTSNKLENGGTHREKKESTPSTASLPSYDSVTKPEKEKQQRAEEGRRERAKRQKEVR

[2] = target: full-length P. pyralis luciferase (Photinus pyralis, UniProt P08659, K549A/L550V/N119G/N50D/S548I); assay type: cell-based
Sequence of full-length P. pyralis luciferase (P08659 whole entry N50D/N119G/S548I/K549A/L550V, looked up): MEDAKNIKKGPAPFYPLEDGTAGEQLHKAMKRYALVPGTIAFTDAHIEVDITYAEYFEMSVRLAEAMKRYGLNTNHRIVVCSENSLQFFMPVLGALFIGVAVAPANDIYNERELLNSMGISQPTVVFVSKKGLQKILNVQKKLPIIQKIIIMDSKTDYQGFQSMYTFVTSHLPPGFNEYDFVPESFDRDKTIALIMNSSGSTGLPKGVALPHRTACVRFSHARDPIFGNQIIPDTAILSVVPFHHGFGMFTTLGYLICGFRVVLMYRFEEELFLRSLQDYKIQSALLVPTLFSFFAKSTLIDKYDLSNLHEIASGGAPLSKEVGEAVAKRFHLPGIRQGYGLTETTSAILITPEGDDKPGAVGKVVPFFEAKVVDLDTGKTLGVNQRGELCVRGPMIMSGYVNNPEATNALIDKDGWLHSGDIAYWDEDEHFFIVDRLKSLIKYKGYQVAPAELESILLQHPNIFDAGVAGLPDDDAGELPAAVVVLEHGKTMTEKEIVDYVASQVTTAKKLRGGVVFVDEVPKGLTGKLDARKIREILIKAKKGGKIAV

[3] = CC_NCI screening, LCA luminescence, biological replicate Set 1, normalized to on-plate 0.3% DMSO controls (n=16 per plate)
[4] = CC_NCI screening, LCA luminescence, biological replicate Set 2, normalized to on-plate 0.3% DMSO controls (n=16 per plate)
[5] = CC_NCI screening, LCA, biological replicate Set 1, normalized to on-plate 0.3% DMSO controls
[6] = CC_NCI screening, LCA, biological replicate Set 2, normalized to on-plate 0.3% DMSO controls
[7] = CC_NCI screening, average of Set 1 and Set 2, normalized to 0.3% DMSO controls
[8] = CC_NCI screening, full-length luciferase counter-screen luminescence, normalized to on-plate 0.3% DMSO controls
[9] = CC_NCI screening, full-length luciferase counter-screen, normalized to on-plate 0.3% DMSO controls
[10] = CC_NCI screening, biological replicate Set 1, normalized to on-plate 0.3% DMSO controls
[11] = CC_NCI screening, biological replicate Set 1, normalized to on-plate 0.3% DMSO controls (n=16 per plate)
[12] = CC_NCI screening, biological replicate Set 2, normalized to on-plate 0.3% DMSO controls
[13] = CC_NCI screening, biological replicate Set 2, normalized to on-plate 0.3% DMSO controls (n=16 per plate)
[14] = average of Set 1 and Set 2, normalized to 0.3% DMSO controls
[15] = CC_NCI screening, normalized to on-plate 0.3% DMSO controls

| SMILES | Split Luciferase Assay % Lum Set 1 [1, 3] | Split Luciferase Assay %Lum Set 2 [1, 4] | Split Luciferase Assay Z-score Set 1 [1, 5] | Split Luciferase Assay Z-score Set 2 [1, 6] | Split Luciferase Assay %Lum Avg [1, 7] | Luciferase Assay % Lum [2, 8] | Luciferase Assay Z-score [2, 9] | Toxicity Assay % Fluor (Clone V cells) | Toxicity Assay Z-score (Clone V cells) | also measured |
| --- | --- | --- | --- | --- | --- | --- | --- | --- | --- | --- |
| CC1=C2C[C@H]3[C@@H](CC=C4C[C@@H](O)CC[C@@]43C)[C@@H]2CC[C@]12O[C@@H]1C[C@H](C)CN[C@H]1[C@H]2C [CYCLOPAMINE] | – | – | – | – | – | – | – | – | – | Split Luciferase Assay % Lum Set 1 [1]: 141.65%; Split Luciferase Assay %Lum Avg [1]: 122.84%; Split Luciferase Assay %Lum Set 2 [1]: 104.03%; Split Luciferase Assay Z-score Set 1 [1]: 3.37; Split Luciferase Assay Z-score Set 2 [1]: 0.33; Luciferase Assay Z-score [2]: 0.81; Toxicity Assay % Fluor (Clone V cells; human): 85.59%; Toxicity Assay Z-score (Clone V cells; human): -2.01 |
| COc1cc2nccc(Oc3ccc(NC(=O)C4(C(=O)Nc5ccc(F)cc5)CC4)cc3)c2cc1OC [Cabozantinib] | 27.50% | 27.05% | -5.86 | -5.94 | 27.28% | 67.75% | -4.13 | – | – | Toxicity Assay % Fluor (Clone V cells; human, 16 h, 30 µM): 93.87%; Toxicity Assay Z-score (Clone V cells; human, 16 h, 30 µM): -0.86 |
| N.N.O=C([O-])C1(C(=O)[O-])CCC1.[Pt+2] [Carboplatin] | – | – | – | – | – | – | – | – | – | Split Luciferase Assay Z-score Set 1 [1, 10]: 0.82; Split Luciferase Assay % Lum Set 1 [1, 11]: 110.12%; Split Luciferase Assay Z-score Set 2 [1, 12]: 1.17; Split Luciferase Assay %Lum Set 2 [1, 13]: 114.43%; Split Luciferase Assay %Lum Avg [1, 14]: 112.28%; Luciferase Assay % Lum (full-length luciferase counter-screen) [2, 15]: 96.43%; Luciferase Assay Z-score (full-length luciferase counter-screen) [2, 15]: -0.46; Toxicity Assay % Fluor (CTB cell viability fluorescence) (Clone V cells): 109.23%; Toxicity Assay Z-score (CTB cell viability) (Clone V cells): 1.29 |
| Cc1ccc(-c2cc(C(F)(F)F)nn2-c2ccc(S(N)(=O)=O)cc2)cc1 [Celecoxib] | 43.81% | 44.73% | -4.54 | -4.50 | 44.27% | 60.07% | -5.11 | – | – | Toxicity Assay % Fluor (Clone V cells; human, 16 h, 30 µM): 88.16%; Toxicity Assay Z-score (Clone V cells; human, 16 h, 30 µM): -1.66 |
| Nc1nc(Cl)nc2c1ncn2[C@@H]1O[C@H](CO)[C@@H](O)[C@@H]1F [Clofarabine] | 146.00% | 131.08% | 3.72 | 2.53 | 138.54% | – | – | – | – | Luciferase Assay % Lum [2]: 100.89%; Luciferase Assay Z-score [2]: 0.11; Toxicity Assay % Fluor (Clone V cells; human, 16 h, 30 µM): 94.15%; Toxicity Assay Z-score (Clone V cells; human, 16 h, 30 µM): -0.82 |
| OCC1OC(O)CC(O)C1O (centres unmarked) [Compound 2DG] | 104.69% | 130.04% | 0.38 | 2.44 | 117.36% | 91.76% | -1.06 | 93.82% | -0.86 | – |
| C=CCNC1=C2C[C@@H](C)C[C@H](OC)[C@H](O)[C@@H](C)/C=C(\C)[C@H](OC(N)=O)[C@@H](OC)/C=C\C=C(/C)C(=O)NC(=CC1=O)C2=O [Compound 17-AAG] | 45.98% | 41.61% | -4.37 | -4.75 | 43.80% | 80.45% | -2.50 | 88.49% | -1.61 | – |
| CO[C@H]1/C=C\C=C(/C)C(=O)NC2=CC(=O)C(NCCN(C)C)=C(C[C@@H](C)C[C@H](OC)[C@H](O)[C@@H](C)/C=C(\C)[C@@H]1OC(N)=O)C2=O [Compound 17-DMAG] | 40.55% | 65.54% | -4.80 | -2.80 | 53.04% | 84.54% | -1.98 | 54.29% | -6.39 | – |
| N#Cc1c(O)c2c(-c3ccc(-c4ccccc4O)cc3)csc2[nH]c1=O [Compound A-769662] | – | – | – | – | – | – | – | – | – | Split Luciferase Assay Z-score Set 1 [1, 10]: 1.52; Split Luciferase Assay % Lum Set 1 [1, 11]: 118.82%; Split Luciferase Assay Z-score Set 2 [1, 12]: 1.01; Split Luciferase Assay %Lum Set 2 [1, 13]: 112.35%; Split Luciferase Assay %Lum Avg [1, 14]: 115.59%; Luciferase Assay % Lum (full-length luciferase counter-screen) [2, 15]: 79.85%; Luciferase Assay Z-score (full-length luciferase counter-screen) [2, 15]: -2.58; Toxicity Assay % Fluor (CTB cell viability fluorescence) (Clone V cells): 107.48%; Toxicity Assay Z-score (CTB cell viability) (Clone V cells): 1.05 |
| Cc1nc2sccn2c(=O)c1CCN1CCC(=C(c2ccccc2)c2ccc(F)cc2)CC1 [Compound R59022] | – | – | – | – | – | – | – | – | – | Split Luciferase Assay Z-score Set 1 [1, 10]: -1.91; Split Luciferase Assay % Lum Set 1 [1, 11]: 76.42%; Split Luciferase Assay Z-score Set 2 [1, 12]: -0.10; Split Luciferase Assay %Lum Set 2 [1, 13]: 98.83%; Split Luciferase Assay %Lum Avg [1, 14]: 87.63%; Luciferase Assay % Lum (full-length luciferase counter-screen) [2, 15]: 55.65%; Luciferase Assay Z-score (full-length luciferase counter-screen) [2, 15]: -5.68; Toxicity Assay % Fluor (CTB cell viability fluorescence) (Clone V cells): 113.72%; Toxicity Assay Z-score (CTB cell viability) (Clone V cells): 1.92 |
| C[C@@H](N)[C@H]1CC[C@H](C(=O)Nc2ccncc2)CC1 [Compound Y-27632] | 76.42% | 74.90% | -1.91 | -2.04 | 75.66% | 95.76% | -0.54 | 96.21% | -0.53 | – |
| O=P1(N(CCCl)CCCl)NCCCO1 (centres unmarked) [Cyclophosphamide] | – | – | – | – | – | – | – | – | – | Split Luciferase Assay % Lum Set 1 [1]: 107.95%; Split Luciferase Assay %Lum Avg [1]: 112.75%; Split Luciferase Assay %Lum Set 2 [1]: 117.56%; Split Luciferase Assay Z-score Set 1 [1]: 0.64; Split Luciferase Assay Z-score Set 2 [1]: 1.43; Luciferase Assay % Lum [2]: 101.62%; Luciferase Assay Z-score [2]: 0.21; Toxicity Assay % Fluor (Clone V cells; human): 98.87%; Toxicity Assay Z-score (Clone V cells; human): -0.16 |
